Experimental data published in publication PMC13081163, “Discovery of a novel Nrf2 activator that modulates mitochondrial function in neurons by regulating DHRS3-Nrf2 interaction after ischemic stroke” (Theranostics, 2026).
Read-outs that look alike come from different tables or passages of the source.

Legend:
[1] = molecular target: T1, Human recombinant Keap1 proteins (Homo sapiens, UniProt Q14145); settings: cited from earlier work
[2] = 28-day long-term toxicity in rats (intragastric); assay type: in vivo, rat; settings: 28 days intragastric
Protocol: During the long-term toxicity test, rats in each group received daily intragastric administration for 28 consecutive days. Animals in the Sham group were administered a mixture of 99% sesame oil and 1% DMSO at a volume of 0.5 mL per rat. Rats in the remaining groups were intragastrically administered varying doses of the respective therapeutic agents.
During the 28-day long-term toxicity study, rats were euthanized following the completion of continuous intragastric administration. Livers and kidneys from both male and female rats in each group were photographed for macroscopic examination, and serum samples were collected for subsequent kit-based analysis. The liver/kidney index was obtained by dividing the weight of the liver/kidney by the body weight.

[3] = tested on: tMCAO rats; assay: Long-term recovery after tMCAO (survival, body weight, behaviour); assay type: in vivo, rat; settings: 5 mg/kg tail vein injection for 7 d
Protocol: To assess the degree of neurological impairment, we conducted modified Neurological Severity Score (mNSS) according to previous experience. The investigator was blinded to the grouping situation during the whole experiment.
On postoperative day 3 two wooden boards of identical size were joined at a 30° angle, with a narrow gap retained at the junction. The rat was positioned facing the apex of the angle. When it advanced into the deeper part of the angle, bilateral whisker contact with the boards triggered a characteristic rearing response, followed by a turn to face the opposite direction. Each rat underwent 15 trials, and the number of right turns was recorded. The higher the right-turn ratio, the more severe the injury.
Rats were placed on a horizontal, stainless steel wire grid. The grid was then smoothly rotated 180 degrees to an inverted position and held stationary at a height of 0.8 m. A stopwatch was started immediately upon inversion to measure the latency to fall. The test was terminated if the animal remained on the grid for 60 s, at which point it was gently returned to its home cage, and a score of 60 s was recorded.
The Y-maze apparatus consisted of three symmetrically arranged enclosed arms (typically labeled Arms A, B, and C), each positioned 120° apart. At the start of each trial, the subject was placed in Arm A and allowed to move freely through the maze for 8 min. Spatial working memory was evaluated by calculating the spontaneous alternation rate, using the following formula:
Following a 2 h acclimation period, the rats were within an open field cubic box (100 × 100 × 40 cm^3) and allowed 5 min of unrestricted movement. The travel distance and the time spent in the central area were recorded.
The spatial learning and memory of rats were assessed using the Morris water maze (MWM) from post-operative days 23 to 26. Over four consecutive days, animals underwent training trials in which they were required to locate a submerged escape platform within 60 s. Each rat was gently placed into the water facing the pool wall. If the rat found the platform and remained on it for 10 s, the escape latency was recorded. If the platform was not found within 60 s, the rat was guided onto it and allowed to stay for 10 s, and the latency was recorded as 60 s. Following the training phase, the platform was removed, and a visual spatial memory test lasting for 60 s was conducted to assess the retention of memory. The number of platform-location crossings and the time spent in the target quadrant were recorded and analyzed.

[4] = Acute (7-day i.v.) toxicity in rats; assay type: in vivo, rat; settings: 10 mg/kg i.v. daily for 7 days
Protocol: Cpd.51 was dissolved in solvent (10% DMSO, 10% Solutol HS-15 and 80% saline). It was injected (i.v.) at dose of 3 mg/kg or 5 mg/kg in a 0.5 mL volume. The Sham group and Vehicle group were treated simultaneously with an equal volume of solvent. In the experiment to explore the treatment time window, we merely administered the drug to the rats at different time points, while all other procedures remained unchanged. In the short-term toxicity study, 10 mg/kg Cpd.51 and Oma were administered via tail vein injection at 0.5 mL daily for 7 consecutive days.
Glutamic-pyruvic transaminase (GPT) kits (ml092635, mlbio, China), glutamic oxaloacetic transaminase (GOT) kits (ml092714, mlbio, China), creatinine (CRE) kits (M12C4L, mlbio, China) and blood urea nitrogen (BUN) kits (ml076479, China) were used to detect the serum of rats in order to evaluate liver and kidney functions. Male and female rats were randomly divided into Sham group, Cpd.51 group and Oma group. Doses were administered once daily at 10 mg/kg and body weights were recorded accordingly. Sham groups were given the same volume of solvent. After 7 days, the […] were sacrificed, serum was collected and tested according to the instructions.

[5] = cited from earlier work
[6] = tested on: SH-SY5Y cells; assay: Protection against OGD/R damage in SH-SY5Y cells (CCK-8); assay type: cell-based, human
Protocol: To mimic ischemic conditions in vitro, cells were washed with PBS and then cultured for 2.5 h at 37 °C in glucose-free medium under anaerobic conditions (5% hydrogen, 90% nitrogen, and 5% carbon dioxide). OGD process was terminated by transferring cells back to normal glucose-containing medium under normoxic conditions (5% CO₂, 37 °C) and maintained for 24 h.
In the administration group, cells were exposed for 12 h with Cpd.51 prior to OGD. OGD lasted for 2.5 h and the reperfusion lasted for 24 h before the experiment was concluded. Subsequently, cell viability was determined using the cell counting kit-8 (CCK-8, C0039, Beyotime, China). In the experiment to explore the treatment time window, the only difference was the timing of the Cpd.51 treatment, while all other procedures remained unchanged.
Hek-293T cells were transiently transfected, using Lipofectamine™ 3000 and P3000™ reagent (L3000075, Invitrogen, USA) according to the manufacturer's instructions, with the wild-type, point-mutant and double-mutations constructs of Keap1, DHRS3 or Nrf2 (each at 0.5 ng/μL), respectively. Similarly, to promote the expression of the DHRS3 gene, a DHRS3 expression plasmids (0.5 ng/μL) was transfected as well as the corresponding negative controls into SH-SY5Y cells for 6 h, and further cultured with fresh medium for 18 h according to the manufacturer's instructions.

[7] = tested on: ARE-luciferase reporter (Nrf2 activation), Hek-293T cells; assay: ARE-luciferase reporter gene assay; assay type: cell-based; settings: Homo sapiens; Hek-293T cells, 12 h after drug treatment
Protocol: The Hek-293T cells were cultured in 96-well plates 24 h before transfection with ARE-luciferase reporter plasmid (11548ES03, Yeasen, China) for 48 h according to the manufacturer's instructions. The Firefly luciferase activities was carried out 12 h after the drug treatment, as described by the manufacturer (11412ES81, Yeasen, China).

[8] = molecular target: T1, Human recombinant Keap1 proteins; assay: SPR binding to full-length Keap1; set-up: purchased Sinobiological ME18DE0203; settings: read-out: KD of Oma (Keap1)
Protocol: The binding affinity of Cpd.51 or Oma to Keap1 proteins were measured using a Biacore T200. The overall experimental procedures were based on previous reports, [28]. Human recombinant Keap1 proteins or truncated form of Keap1 (residues 48-180 and residues 48-149) were captured on a CM5 chip by a standard amine coupling procedure. Binding sensorgrams were recorded by injecting various concentrations of Cpd.51 over the immobilized proteins surface. The dissociation constant was obtained by globally fitting the data (to the 1:1 Langmuir binding model using the Biacore Insight evaluation software (Cytiva, Marlborough, MA, USA). Affinity tests for Cpd.51 and DHRS3 were also performed using the aforementioned method.

[9] = tested on: SH-SY5Y cells; assay: Cytotoxicity in SH-SY5Y cells, 24 h incubation; assay type: cell-based; settings: Homo sapiens
[10] = set-up: method as in PMID 40455368; settings: 28-day, oral 10 mg/kg, rats; cited from earlier work
[11] = set-up: method as in PMID 37155124; settings: clinical; cited from earlier work
[12] = Oma 10 mg/kg, Cpd.51 1, 3 and 10 mg/kg

T1 sequence (Q14145 whole entry): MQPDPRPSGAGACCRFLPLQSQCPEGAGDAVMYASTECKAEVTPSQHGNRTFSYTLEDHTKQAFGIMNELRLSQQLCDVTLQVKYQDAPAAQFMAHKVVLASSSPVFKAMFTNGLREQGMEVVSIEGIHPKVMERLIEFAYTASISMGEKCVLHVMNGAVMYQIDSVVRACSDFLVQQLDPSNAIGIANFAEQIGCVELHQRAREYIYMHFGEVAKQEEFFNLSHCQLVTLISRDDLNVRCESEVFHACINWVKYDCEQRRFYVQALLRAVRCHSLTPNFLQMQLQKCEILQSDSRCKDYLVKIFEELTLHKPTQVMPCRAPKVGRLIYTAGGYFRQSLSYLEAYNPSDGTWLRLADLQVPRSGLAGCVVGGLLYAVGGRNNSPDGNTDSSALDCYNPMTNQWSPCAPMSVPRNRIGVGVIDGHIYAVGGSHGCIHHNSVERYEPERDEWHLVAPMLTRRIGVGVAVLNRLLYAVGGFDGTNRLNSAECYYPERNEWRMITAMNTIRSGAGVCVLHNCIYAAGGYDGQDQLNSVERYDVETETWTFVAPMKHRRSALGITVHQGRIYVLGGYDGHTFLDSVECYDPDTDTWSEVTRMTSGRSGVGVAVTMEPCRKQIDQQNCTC
Sequence of Nrf2 (Q16236 whole entry): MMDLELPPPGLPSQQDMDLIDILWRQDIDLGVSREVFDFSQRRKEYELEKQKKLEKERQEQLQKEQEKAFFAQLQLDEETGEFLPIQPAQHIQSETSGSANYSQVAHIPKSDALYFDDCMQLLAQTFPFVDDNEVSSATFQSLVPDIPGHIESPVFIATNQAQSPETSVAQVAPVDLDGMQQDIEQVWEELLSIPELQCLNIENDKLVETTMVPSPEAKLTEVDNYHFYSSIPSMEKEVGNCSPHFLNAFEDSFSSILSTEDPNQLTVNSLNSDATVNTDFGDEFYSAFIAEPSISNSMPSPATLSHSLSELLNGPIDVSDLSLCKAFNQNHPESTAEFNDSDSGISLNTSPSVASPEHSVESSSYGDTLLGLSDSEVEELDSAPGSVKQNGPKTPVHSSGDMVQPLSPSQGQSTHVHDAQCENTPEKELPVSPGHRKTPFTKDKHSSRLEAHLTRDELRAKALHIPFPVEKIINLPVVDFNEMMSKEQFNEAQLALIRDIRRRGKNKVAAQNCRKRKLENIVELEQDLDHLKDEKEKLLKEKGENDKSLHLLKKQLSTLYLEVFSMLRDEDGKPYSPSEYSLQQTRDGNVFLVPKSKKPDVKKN

In the case of Nrf2 (from UniProt Q16236), the Kd [1] is given as 19 nM.

In the case of `CC1(C)CC[C@]2(NC(=O)C(C)(F)F)CC[C@]3(C)[C@H](C(=O)C=C4[C@@]5(C)C=C(C#N)C(=O)C(C)(C)[C@@H]5CC[C@]43C)[C@@H]2C1` [Oma, Omaveloxolone, reference compound], the “liver and kidney indices” value ([2]; 10 mg/kg, female and male rats) is reported as “markedly increased the liver and kidney indices”, the body weight [2, 12] is reported as “neither compound significantly affected body weight” and the “plasma markers of hepatic and renal injury” value [2, 12] is reported as “significantly elevated plasma markers of hepatic and renal injury”. The “body weight and mNSS scores, long-term” value [3] was “significantly improved body weight and mNSS scores”, the “corner, inverted screen, Y maze and open field tests” value ([3]; vs model group) was “exhibited improvements in neurological deficits, motor abilities, and spatial working and reference memory” and the “liver hypertrophy, serum GPT and GOT” value [4] was “marked liver hypertrophy and elevated serum levels of glutamic-pyruvic transaminase (GPT) and glutamic oxaloacetic transaminase (GOT)”. For the same compound, the “serum CRE and BUN” value [4] was “increased serum creatinine (CRE) and blood urea nitrogen (BUN) levels”, the weight gain [4] was “suppressed weight gain” and the “patients developing liver injury during clinical trials” value [5] was ~ 37%. The “OGD/R damage when administered at different time points” value ([6]; 100 nM, CCK-8) was “consistently alleviated OGD/R damage”, the EC50 ([6]; Homo sapiens, SH-SY5Y, read-out: EC50 against OGD/R damage) was 80.8 nM and the EC50 [7] was 104 nM. For the same compound, the Kd [8] was 21.7 nM, the IC50 [9] was 758 nM and the “hepatotoxicity (liver weight, plasma ALT)” value [10] was “induced hepatotoxicity”. The “apparent volume of distribution (Vd)” value [11] was about 105 L/kg and the “terminal half-life (T1/2)” value [11] was about 57 h.
